Each compound was assayed on G. duodenalis BRIS/91/HEPU/1279 (assay: Primary Giardia screen at 10 µM (live-cell imaging, automated counting)). Conditions: 24 h.
Assay type: cell-based, Giardia duodenalis
Method in brief: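 Compounds were tested once each at 10 μM final (0.2% DMSO) in culture medium under 3% O2, 5% CO2 in N2. Growth was read at 24 and 48 h by live-cell imaging with automated counting, and inhibition expressed as percent growth versus 0.2% DMSO vehicle after media-only background subtraction.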

| SMILES | Average % Inhibition 24h |
| --- | --- |
| O=S(=O)(Cc1ccccc1)Nc1cccc(-c2nnc(Cc3ccc4c(c3)OCO4)o2)c1 [SN00795993] | 17.2% |
| Cn1cc2c(n1)c(=O)n(Cc1ccccc1)c(=O)n2CC(=O)Nc1cccc(F)c1 [SN00796169] | 30.6% |
| COc1ccc(Cl)cc1NC(=O)Nc1ccc2c(c1)CN(Cc1ccccc1)C2 [SN00796317] | 8.8% |
| Cn1nc(-c2nnc(-c3ccccc3Cl)o2)c2c1CCN(C(=O)c1ccc(F)c(F)c1)C2 [SN00796834] | 6.4% |

Same assay, conditions: 24 h, first singlicate assay

| SMILES | % Inhibition n=1 24h |
| --- | --- |
| O=S(=O)(Cc1ccccc1)Nc1cccc(-c2nnc(Cc3ccc4c(c3)OCO4)o2)c1 [SN00795993] | 34.4% |
| Cn1cc2c(n1)c(=O)n(Cc1ccccc1)c(=O)n2CC(=O)Nc1cccc(F)c1 [SN00796169] | 37.8% |
| COc1ccc(Cl)cc1NC(=O)Nc1ccc2c(c1)CN(Cc1ccccc1)C2 [SN00796317] | 17.7% |
| Cn1nc(-c2nnc(-c3ccccc3Cl)o2)c2c1CCN(C(=O)c1ccc(F)c(F)c1)C2 [SN00796834] | 12.9% |

Same assay, conditions: 24 h, re-assessment

| SMILES | % Inhibition n=2 24h |
| --- | --- |
| O=S(=O)(Cc1ccccc1)Nc1cccc(-c2nnc(Cc3ccc4c(c3)OCO4)o2)c1 [SN00795993] | 0.0% |
| Cn1cc2c(n1)c(=O)n(Cc1ccccc1)c(=O)n2CC(=O)Nc1cccc(F)c1 [SN00796169] | 23.4% |
| COc1ccc(Cl)cc1NC(=O)Nc1ccc2c(c1)CN(Cc1ccccc1)C2 [SN00796317] | 0.0% |
| Cn1nc(-c2nnc(-c3ccccc3Cl)o2)c2c1CCN(C(=O)c1ccc(F)c(F)c1)C2 [SN00796834] | 0.0% |

Same assay, conditions: 48 h

| SMILES | Average % Inhibition 48h |
| --- | --- |
| O=S(=O)(Cc1ccccc1)Nc1cccc(-c2nnc(Cc3ccc4c(c3)OCO4)o2)c1 [SN00795993] | 46.9% |
| Cn1cc2c(n1)c(=O)n(Cc1ccccc1)c(=O)n2CC(=O)Nc1cccc(F)c1 [SN00796169] | 62.8% |
| COc1ccc(Cl)cc1NC(=O)Nc1ccc2c(c1)CN(Cc1ccccc1)C2 [SN00796317] | 37.5% |
| Cn1nc(-c2nnc(-c3ccccc3Cl)o2)c2c1CCN(C(=O)c1ccc(F)c(F)c1)C2 [SN00796834] | 12.8% |

Same assay, conditions: 48 h, first singlicate assay

| SMILES | % Inhibition n=1 48h |
| --- | --- |
| COc1ccc(S(=O)(=O)N2CCCC(C)(C(=O)NCc3ccc(F)cc3)C2)cc1 (stereo not drawn) [SN00795932] | 8.4% |
| CCCC(=O)Nc1cc(F)c2nc(N3CCCCC3)ccc2c1 [SN00795955] | 0.0% |
| O=S(=O)(Cc1ccccc1)Nc1cccc(-c2nnc(Cc3ccc4c(c3)OCO4)o2)c1 [SN00795993] | 80.2% |
| COc1cccc(-n2ccn3cc(-c4ccc(OC)c(OC)c4)nc3c2=O)c1 [SN00796018] | 36.9% |
| Cc1ccc(S(=O)(=O)N2CCC3(CC2)NCCN=C3NC2CCCCCC2)c(C)c1 [SN00796055] | 0.0% |
| CCCNC(=O)N1CCN(Cc2nc3cccnc3n2-c2ccc(CC)cc2)CC1 [SN00796091] | 0.0% |
| Cc1cccc(-n2c(CN3CCN(C(=O)NCC4CCCO4)CC3)nc3cccnc32)c1 (stereo not drawn) [SN00796109] | 0.7% |
| COc1ccc(-n2c(CN3CCN(S(=O)(=O)c4cc(C)ccc4C)CC3)nc3cccnc32)cc1 [SN00796116] | 13.7% |
| CCc1ccc(-n2c(CN3CCN(S(C)(=O)=O)CC3)nc3cccnc32)cc1 [SN00796120] | 7.0% |
| Cn1cc2c(n1)c(=O)n(Cc1ccccc1)c(=O)n2CC(=O)Nc1cccc(F)c1 [SN00796169] | 46.9% |
| COc1ccccc1-c1nc(C2CCN(C(=O)COc3ccccc3)CC2)no1 [SN00796215] | 15.9% |
| O=C(Cc1csc2nc(-c3ccccc3)cn12)NCCc1cccs1 [SN00796222] | 0.0% |
| Cc1ccc(-n2nc(C)c3sc(N4CCCC(C(=O)NCc5ccc6c(c5)OCO6)C4)nc32)cc1 (stereo not drawn) [SN00796247] | 0.0% |
| Cc1ccc(-n2nc(C)c3sc(N4CCCC(C(=O)NCC5CCCO5)C4)nc32)cc1 (stereo not drawn) [SN00796250] | 2.9% |
| Cc1ccc(NC(=O)Nc2ccc3c(c2)CCN3S(=O)(=O)c2ccccc2)cc1 [SN00796277] | 10.0% |
| Cc1c(F)cccc1NC(=O)Nc1ccc2c(c1)CCN2S(C)(=O)=O [SN00796291] | 21.1% |
| Cc1sc2cc(-c3ccccc3)oc2c1C(=O)NCc1ccccc1 [SN00796296] | 20.2% |
| COc1ccc(CNC(=O)c2c(C)sc3cc(-c4ccccc4)oc23)cc1 [SN00796298] | 29.4% |
| COc1ccc(Cl)cc1NC(=O)Nc1ccc2c(c1)CN(Cc1ccccc1)C2 [SN00796317] | 57.6% |
| Cc1ccc(NC(=O)Nc2ccc3c(c2)CN(Cc2ccccc2)C3)c(C)c1 [SN00796327] | 41.2% |
| O=C(c1nnn(-c2ccccc2Cl)c1-c1ccncc1)N1CCc2ccccc2C1 [SN00796355] | 30.9% |
| O=C(NCC1CC1)c1nnn(-c2ccccc2)c1-c1ccncc1 [SN00796358] | 0.0% |
| CCOC(=O)N1CCN(c2cc(-c3nc(-c4cccc(OC)c4OC)no3)c3ccccc3n2)CC1 [SN00796395] | 18.1% |
| COc1cccc(-c2noc(-c3cc(N4CCN(C(C)=O)CC4)nc4ccccc34)n2)c1OC [SN00796396] | 7.7% |
| CC(C)C(=O)N1CCc2c(c(COCc3ccccc3F)nn2C)C1 [SN00796410] | 0.0% |
| COCC(=O)N1CCc2c(c(COCc3ccc(C)cc3)nn2C)C1 [SN00796424] | 0.0% |

| SMILES | % Inhibition n=1 48h |
| --- | --- |
| Cc1ccc(COCc2nn(C)c3c2CN(C(=O)Nc2ccccc2)CC3)cc1 [SN00796435] | 0.0% |
| Cc1ccc(COCc2nn(C)c3c2CN(S(=O)(=O)c2ccc(F)c(C)c2)CC3)cc1 [SN00796451] | 2.1% |
| CCc1nc(N2CCCC2=O)sc1C(=O)Nc1ccc(C)c(C)c1 [SN00796500] | 0.0% |
| Cc1ccc(-c2nc(C(=O)N3CCN(c4ccc(Cl)cc4)CC3)cs2)s1 [SN00796526] | 7.8% |
| O=C(c1nnn(-c2ccc(Cl)cc2)c1-c1cccnc1)N1CCCCC1 [SN00796543] | 20.4% |
| Cc1ccc(CNC(=O)c2ccc(-n3cnc(NC(=O)C(C)C)c3)cc2)cc1 [SN00796570] | 29.7% |
| Cc1ccc2oc(-c3noc(C4CC(=O)N(c5ccccc5)C4)n3)c(C)c2c1 (stereo not drawn) [SN00796597] | 2.9% |
| COc1ccc2oc(-c3noc(C(NC(=O)c4ccco4)C(C)C)n3)c(C)c2c1 (stereo not drawn) [SN00796606] | 9.9% |
| Cc1ccc(-c2noc(-c3ccc(N4CCN(Cc5ccc6c(c5)OCO6)CC4)nc3)n2)cc1 [SN00796635] | 7.2% |
| CCN1CCN(c2ccc(-c3nc(-c4cccc(F)c4)no3)cn2)CC1 [SN00796649] | 48.2% |
| CCc1ccc(NC(=O)N2CCc3c(c(-c4nc(C)no4)nn3C)C2)cc1 [SN00796748] | 19.4% |
| Cc1noc(-c2nn(C)c3c2CN(S(=O)(=O)Cc2cccc(F)c2)CC3)n1 [SN00796798] | 14.3% |
| Cn1nc(-c2nnc(-c3ccccc3Cl)o2)c2c1CCN(C(=O)c1ccc(F)c(F)c1)C2 [SN00796834] | 25.5% |
| CCCS(=O)(=O)N1CCc2c(c(-c3nnc(-c4ccc(F)cc4)o3)nn2C)C1 [SN00796867] | 0.0% |
| COc1ccc(S(=O)(=O)N(C)c2ccsc2C(=O)NCCC(C)C)cc1 [SN00797030] | 10.4% |
| Cc1ccc(S(=O)(=O)N(C)c2ccsc2C(=O)Nc2ccc(C)c(C)c2)cc1 [SN00797041] | 12.0% |
| Cc1ccc(NC(=O)Cn2c(=O)nc(NC3CCCC3)c3ccccc32)cc1C [SN00797075] | 0.0% |
| O=C(NCc1cccc(C(F)(F)F)c1)C1CCCN(c2nccnc2Oc2ccccc2)C1 (stereo not drawn) [SN00797123] | 15.6% |
| CCC(=O)Nc1cccc(-c2noc(C3CCCN(C(=O)c4ccc(C)c(F)c4)C3)n2)c1 (stereo not drawn) [SN00797220] | 14.6% |
| Cc1nc(-c2cc(S(=O)(=O)N3CCCCCC3)c(C)s2)sc1C [SN00797236] | 11.8% |
| CCN(c1cccc(C)c1)S(=O)(=O)c1cc(-c2nc(C)c(C)s2)sc1C [SN00797239] | 10.7% |
| Cc1cc(-c2csc(S(=O)(=O)Nc3ccc(Cl)c(C(F)(F)F)c3)c2)on1 [SN00797257] | 0.0% |
| CCCn1nccc1-c1csc(S(=O)(=O)NC(C)C)c1 [SN00797311] | 9.7% |
| Cc1cccc(CC(=O)N2CCN(c3nc4cccnc4n(Cc4ccccc4)c3=O)CC2)c1 [SN00797319] | 38.8% |
| C=CCn1c(=O)c(N2CCC(NC(=O)NC3CCCC3)CC2)nc2cccnc21 [SN00797341] | 6.8% |
| COc1ccc(-c2nc(Cn3nnc(C(=O)Nc4ccc(F)cc4F)c3N)c(C)o2)c(OC)c1 [SN00797364] | 3.5% |

Same assay, conditions: 48 h, re-assessment

| SMILES | % Inhibition n=2 48h |
| --- | --- |
| O=S(=O)(Cc1ccccc1)Nc1cccc(-c2nnc(Cc3ccc4c(c3)OCO4)o2)c1 [SN00795993] | 13.6% |
| Cn1cc2c(n1)c(=O)n(Cc1ccccc1)c(=O)n2CC(=O)Nc1cccc(F)c1 [SN00796169] | 78.6% |
| COc1ccc(Cl)cc1NC(=O)Nc1ccc2c(c1)CN(Cc1ccccc1)C2 [SN00796317] | 17.4% |
| Cn1nc(-c2nnc(-c3ccccc3Cl)o2)c2c1CCN(C(=O)c1ccc(F)c(F)c1)C2 [SN00796834] | 0.0% |

From publication PMC9775191, “A Subset Screen of the Compounds Australia Scaffold Library Identifies 7-Acylaminodibenzoxazepinones as Potent and Selective Hits for Anti-Giardia Drug Discovery” (Biomedicines, 2022)
